Experimental findings from ChEMBL document CHEMBL1201862, “PubChem BioAssay data set” (2004) are described below.

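96-well plates; 48 h exposure; 5 concentrations. Endpoints by linear interpolation between flanking doses. Not reached: highest tested concentration assigned. At the GI50, growth is halved.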 Active and inactive are the calls of the source. No stated cut-off is given here; in the data, active = GI50 up to about 1.1 µM and inactive = higher. Peptide text beside a SMILES is read from it. * marks the point of attachment. Boc = CC(C)(C)OC(=O)* Bounds are passed on as bounds.

Among the test systems are OVCAR-4; MDA-N; SW-620; HCT-116; Hs-578T; BT-549; NCI/ADR-RES; SR; SN12C; NCI-H23; RPMI-8226; MCF7; EKVX; RXF 393; MDA-MB-435; UACC-257; MDA-MB-231.
Common to all, as to assay: NCI anticancer screen, dose series, 48 h

For `Cn1ccnc1Sc1ccc(/C=N/NC(=O)c2ccccc2[N+](=O)[O-])cc1[N+](=O)[O-]`, the GI50 in the assay on OVCAR-4 was 57.8 µM (inactive); in the assay with MDA-N it was 89.1 µM (inactive); in the assay on SW-620, 98.2 µM (inactive); in the assay with HCT-116 it was 65.6 µM (inactive); with Hs-578T, > 100 µM (inactive); in the assay with BT-549, 83.9 µM (inactive). For the same compound, the GI50 in the assay on NCI/ADR-RES was > 100 µM (inactive); with SR it was 36.1 µM (inactive); with SN12C it was 60.3 µM (inactive); with NCI-H23 it was 58.6 µM (inactive); in the assay with RPMI-8226 it was 38.7 µM (inactive); in the assay on MCF7, 59.8 µM (inactive). The GI50 in the assay with EKVX is 40.9 µM (inactive); with RXF 393, 52.5 µM (inactive); in the assay with MDA-MB-435, 66.7 µM (inactive); with UACC-257, 87.5 µM (inactive); with MDA-MB-231 it was 23.1 µM (inactive).
For `COc1ccc2c(-c3ccc(OCCN(C)C)cc3)c(Oc3ccc(Cl)cc3)c(=O)oc2c1`, the GI50 was 20 µM (inactive) with OVCAR-4; 2.06 µM (inactive) with MDA-N; 5.41 µM (inactive) in the assay on SW-620; 2.63 µM (inactive) with HCT-116; 6.01 µM (inactive) with Hs-578T; 14.7 µM (inactive) with BT-549. For the same compound, the GI50 in the assay on NCI/ADR-RES is 9.16 µM (inactive); with SR, 2 µM (inactive); in the assay on SN12C, 20.2 µM (inactive); with NCI-H23 it was 14.5 µM (inactive); in the assay on RPMI-8226 it was 4.05 µM (inactive); in the assay with MCF7, 2.52 µM (inactive). The GI50 in the assay with EKVX was 11.5 µM (inactive); in the assay with RXF 393, 4.18 µM (inactive); in the assay with MDA-MB-435 it was 2.85 µM (inactive); in the assay with UACC-257 it was 2.05 µM (inactive); with MDA-MB-231, 6.79 µM (inactive).
For the compound `CCOC(=O)c1nc2cc(C(F)(F)F)ccc2nc1Nc1ccc(OC)cc1`, the GI50 in the assay with MDA-N is > 100 µM (inactive); in the assay with SW-620 it was > 100 µM (inactive); in the assay with HCT-116, 46.1 µM (inactive); with Hs-578T it was 54.1 µM (inactive); with BT-549 it was > 100 µM (inactive); in the assay on NCI/ADR-RES, > 100 µM (inactive). For the same compound, the GI50 in the assay with SR, in the assay on SN12C, in the assay with NCI-H23, in the assay with RPMI-8226, in the assay on MCF7 and in the assay with EKVX was > 100 µM (inactive) in each case. The GI50 in the assay on RXF 393 was 56.1 µM (inactive); with MDA-MB-435 it was > 100 µM (inactive); in the assay with UACC-257, > 100 µM (inactive); with MDA-MB-231, 61.7 µM (inactive).
Regarding `COC(Cc1ccccc1)NC(C)=O` (stereo unspecified), the GI50 in the assay on OVCAR-4, in the assay with MDA-N, with SW-620, with HCT-116, in the assay on Hs-578T and in the assay on BT-549 was > 100 µM (inactive) throughout. Further, the GI50 in the assay with NCI/ADR-RES, with SR, in the assay with SN12C, in the assay with NCI-H23, in the assay with RPMI-8226 and in the assay on MCF7 was > 100 µM (inactive) each time. Moreover, the GI50 in the assay on EKVX, in the assay with RXF 393, in the assay with MDA-MB-435, in the assay with UACC-257 and in the assay on MDA-MB-231 was > 100 µM (inactive) in each case.
`C#CCOC(=O)C(N)CC(N)=O` (stereo unspecified): the GI50 in the assay on OVCAR-4, in the assay with MDA-N, in the assay on SW-620, in the assay on HCT-116, with Hs-578T and in the assay on BT-549 was > 100 µM (inactive) in each case. The GI50 in the assay on NCI/ADR-RES, with SR, in the assay on SN12C, with NCI-H23, with RPMI-8226 and in the assay with MCF7 was > 100 µM (inactive) each time. Also, the GI50 in the assay on EKVX, in the assay with RXF 393, in the assay on MDA-MB-435, in the assay on UACC-257 and in the assay with MDA-MB-231 was > 100 µM (inactive) in each case.
Regarding `CC1CCc2sc3nc(S)n(C)c(=O)c3c2C1` (stereo unspecified), the GI50 was 35.2 µM (inactive) with OVCAR-4; 44 µM (inactive) in the assay with MDA-N; 39.2 µM (inactive) in the assay with SW-620; 34.5 µM (inactive) with HCT-116; 78.2 µM (inactive) with Hs-578T; 96.8 µM (inactive) in the assay on BT-549. Also, the GI50 in the assay with NCI/ADR-RES is 36.1 µM (inactive); in the assay with SR, 34 µM (inactive); in the assay with SN12C, 36.5 µM (inactive); in the assay with NCI-H23, 35.6 µM (inactive); in the assay on RPMI-8226, 36.7 µM (inactive); with MCF7 it was 35.5 µM (inactive). Also, the GI50 was 19 µM (inactive) with EKVX; 57.9 µM (inactive) in the assay on RXF 393; 50.5 µM (inactive) in the assay with MDA-MB-435; 35.3 µM (inactive) with UACC-257; 36.7 µM (inactive) in the assay with MDA-MB-231.
Take `CC(NC(=O)OC(C)(C)C)C(=O)NC(Cc1ccccc1)C(=O)NCC(=O)O` (stereo not drawn) (Boc-Ala-Phe-Gly-OH; configuration not given here): the GI50 in the assay with MDA-N, in the assay on SW-620, in the assay with HCT-116, with Hs-578T, in the assay on BT-549 and in the assay with NCI/ADR-RES was > 100 µM (inactive) in each case. Besides, the GI50 with SR, in the assay with SN12C, in the assay with NCI-H23, in the assay with RPMI-8226, in the assay on MCF7 and in the assay on EKVX was > 100 µM (inactive) throughout. Besides, the GI50 with RXF 393, with MDA-MB-435, with UACC-257 and in the assay with MDA-MB-231 was > 100 µM (inactive) throughout.
In the case of `C=CC(Br)(CBr)CCC1OC1(C)C` (stereo unspecified), the GI50 was 16.3 µM (inactive) in the assay on OVCAR-4; 11.3 µM (inactive) in the assay on MDA-N; 13.1 µM (inactive) with SW-620; 17 µM (inactive) in the assay on HCT-116; 15 µM (inactive) in the assay on Hs-578T; 16.6 µM (inactive) with BT-549. The GI50 in the assay on NCI/ADR-RES is 23.5 µM (inactive); in the assay with SR it was 26.9 µM (inactive); in the assay on SN12C it was 16.6 µM (inactive); in the assay with NCI-H23 it was 16.3 µM (inactive); in the assay on RPMI-8226 it was 20.4 µM (inactive); in the assay with MCF7 it was 14.1 µM (inactive). In addition, the GI50 in the assay with EKVX is 20.3 µM (inactive); with RXF 393, 9.23 µM (inactive); in the assay with MDA-MB-435 it was 17.3 µM (inactive); in the assay on UACC-257, 14.6 µM (inactive); in the assay with MDA-MB-231 it was 11.8 µM (inactive).
In the case of `CCNC(=S)N/N=C(/C)c1cccc(/C(C)=N\NC(=S)NCC)n1`, the GI50 with OVCAR-4 is 2.14 µM (inactive); with MDA-N it was 1.23 µM (inactive); with SW-620, 0.486 µM (active); in the assay on HCT-116, 0.367 µM (active); in the assay with Hs-578T, 13.8 µM (inactive); with BT-549, 10.4 µM (inactive). The GI50 in the assay on NCI/ADR-RES is 0.748 µM (active); in the assay on SR, 0.184 µM (active); in the assay on SN12C it was 1.46 µM (inactive); in the assay on NCI-H23 it was 4.06 µM (inactive); in the assay on RPMI-8226, 0.847 µM (active); in the assay on MCF7, 0.689 µM (active). The GI50 is 1.11 µM (active) with EKVX; 3.44 µM (inactive) in the assay on RXF 393; 2.82 µM (inactive) in the assay with MDA-MB-435; 4.16 µM (inactive) in the assay with UACC-257; 2.32 µM (inactive) with MDA-MB-231.
`COc1cc2c3c(c1O)-c1c(ccc(OC)c1OC)CC3N(C)CC2` (stereo unspecified): the GI50 with OVCAR-4, in the assay with MDA-N, in the assay on SW-620, with HCT-116, in the assay with Hs-578T and with BT-549 was > 100 µM (inactive) each time. In addition, the GI50 in the assay with NCI/ADR-RES, in the assay on SR, in the assay with SN12C, with NCI-H23, with RPMI-8226 and in the assay with MCF7 was > 100 µM (inactive) throughout. The GI50 in the assay with EKVX, in the assay on RXF 393, in the assay with MDA-MB-435, in the assay with UACC-257 and in the assay with MDA-MB-231 was > 100 µM (inactive) in each case.
Take `Cc1cccc2c1C(=O)[C@](C)([C@]1(C)Nc3cccc(C)c3C1=O)N2`: the GI50 in the assay on OVCAR-4 was 47.6 µM (inactive); in the assay on MDA-N it was 25 µM (inactive); with SW-620, 30.7 µM (inactive); with HCT-116, 56.6 µM (inactive); with Hs-578T, 21.7 µM (inactive); in the assay with BT-549, 20.8 µM (inactive). Also, the GI50 in the assay on NCI/ADR-RES is 27.7 µM (inactive); with SR it was 17.7 µM (inactive); in the assay on SN12C, 29.6 µM (inactive); with NCI-H23, 25.6 µM (inactive); with RPMI-8226, 10.8 µM (inactive); in the assay on MCF7, 45.4 µM (inactive). Also, the GI50 was 23.7 µM (inactive) in the assay on EKVX; 54.1 µM (inactive) in the assay with RXF 393; 15.7 µM (inactive) with MDA-MB-435; 30.8 µM (inactive) with UACC-257; 37.1 µM (inactive) with MDA-MB-231.
For `OCC(O)COCn1cc(Cn2ncc3c(NCc4ccccc4)ncnc32)nn1` (stereo unspecified), the GI50 in the assay with OVCAR-4 is > 100 µM (inactive); with MDA-N it was > 100 µM (inactive); in the assay on SW-620, > 100 µM (inactive); in the assay with HCT-116, > 100 µM (inactive); in the assay on Hs-578T, 25 µM (inactive); in the assay on BT-549 it was > 100 µM (inactive). Also, the GI50 with NCI/ADR-RES, with SR, in the assay with SN12C, in the assay on NCI-H23, with RPMI-8226 and with MCF7 was > 100 µM (inactive) throughout. Besides, the GI50 in the assay with EKVX, in the assay with MDA-MB-435, in the assay with UACC-257 and in the assay on MDA-MB-231 was > 100 µM (inactive) each time.
